In patent US20060024392A1, “Compositions and methods for enhancing the effectiveness of a chemotherapeutic agent” (priority 2004, published 2006):
Entries after “also recorded” stand apart in the source; their conditions may differ.

Test system: HT29 colon cancer cells
Experiment: Sulforhodamine B (SRB) cell growth assay in HT29 colon cancer cells
Type: cell-based
Method: HT-29, a cell line derived from colorectal adenocarcinoma (ATCC, HTB 38), grows in McCoy's 5A medium (Biowhittaker, Inc. Walkersville, Md.). NCM460, a cell line derived from a normal human colon (InCell Corp. San Antonio, Tex.), grows in M3 Base media (InCell Corp. San Antonio, Tex.).
Both cell lines are kept at 37° C. and 5% CO2 atmosphere. Both media are supplemented with 10% fetal bovine serum (FBS, Biowhittaker, Inc. Walkersville, Md.).
Cells are fixed in situ by the gentle addition of 50 μl of cold 50% (w/v) TCA (final concentration, 10% TCA) and incubated for 60 minutes at 4° C. The supernatant is discarded, and the plates are washed five times with tap water and air dried. Sulforhodamine B (SRB) solution (100 μl) at 0.4% (w/v) in 1% acetic acid is added to each well, and plates are incubated for 10 minutes at room temperature. After staining, unbound dye is removed by washing five times with 1% acetic acid and the plates are air dried. Bound stain is subsequently solubilized with 100 μl 10 mM trizma base for 5 minutes, and the absorbance at wavelength of 490 nm was spectrophotometrically measured using a microplate reader Elx800 (Bio-Tek instruments, Inc.).
Cells were seeded in 96-well cluster tissue culture plates (Costar), containing 100 μl complete growth medium per well at densities of 5,000 cells per well. Incubated at 37° C. in a humidified tissue culture incubator. After 24 Hour, 100 μl complete medium containing 5 half-log dilutions of the 5FU from 2*10^−4 to 2*10^−6 M was added into each well (final concentrations are from 10^−4 to 10^−6 M). Six replicates were used for each concentration. Media containing 0.125% DMSO was used as control. After 48 hours of incubation with 5FU in medium, cell proliferation was assessed using the SRB assay.
Percentage growth (Growth%) is calculated as: [(Ti−Tz)/(C−Tz)]×100 [absorbance measurements at time zero (Tz), control growth (C), and test growth in the presence of drug at the different concentration levels (Ti)].
Similar to the method used in testing GI50 of 5FU: HT29 was plated at 5000 cells per well. […] After 48 hour treatment, cell growth was assessed using SRB assay.
The protocol was the same as described above, except cells were exposed to 5FU at concentration ranging from 10^−4 to 10^−6 M with chokeberry ARE at concentration of 1.56, 5, 15.6, 50 μg monomeric anthocyanin/ml growth media.
The protocol was the similar to Experiment 1: Cells were exposed to half-log diluted SAC at concentration ranging from 3.2 to 1000 μM for 48 hour. Media containing 0.5% filtered water was used as control.
This experiment was to determine whether the antioxidant, SAC would enhance the effect of 5FU in HT29 cells. The protocol was the same as Experiment 3, except cells were exposed to 5FU at concentration ranging from 10^−4 to 10^−6 M with SAC at concentration of 10, 100, 1000 μM.

[1] = SAC 3.2 μM, 48 hour, experiment 1
[2] = SAC 3.2 μM, 48 hour, experiment 2
[3] = SAC 10 μM, 48 hour, experiment 1
[4] = SAC 10 μM, 48 hour, experiment 2
[5] = SAC 32 μM, 48 hour, experiment 1
[6] = SAC 32 μM, 48 hour, experiment 2
[7] = SAC 100 μM, 48 hour, experiment 1
[8] = SAC 100 μM, 48 hour, experiment 2
[9] = SAC 320 μM, 48 hour, experiment 1
[10] = SAC 320 μM, 48 hour, experiment 2
[11] = SAC 1000 μM, 48 hour, experiment 1
[12] = SAC 1000 μM, 48 hour, experiment 2
[13] = Table 6 (1): SAC 1000 uM, 5FU 0
[14] = Table 6 (2): SAC 1000 uM, 5FU 0

C=CCSC[C@H](N)C(=O)O [SAC, S-Allyl-cysteine]
enhancement of 5FU toxicity by SAC (5FU 10^−4 to 10^−6 M with SAC 10, 100, 1000 μM): No significant enhancement; also recorded: did not inhibit HT29 cell growth or enhance 5 FU toxicity
Growth % [1]: 101.17%
OD [1]: 0.66
Growth % [2]: 102.24%
OD [2]: 0.682
Growth % [3]: 98.37%
OD [3]: 0.648
Growth % [4]: 94.17%
OD [4]: 0.646
Growth % [5]: 92.77%
OD [5]: 0.624
Growth % [6]: 98.43%
OD [6]: 0.665
Growth % [7]: 92.77%
OD [7]: 0.624
Growth % [8]: 98.21%
OD [8]: 0.664
Growth % [9]: 81.59%
OD [9]: 0.576
Growth % [10]: 101.35%
OD [10]: 0.678
Growth % [11]: 86.95%
OD [11]: 0.599
Growth % [12]: 98.65%
OD [12]: 0.666
inhibition of HT29 cancer cells by SAC (SAC 3.2 to 1000 μM, 48 hour): did not show significant inhibition; also recorded: did not inhibit HT29 cell growth
Growth % (Table 6 (1): SAC 10 uM, 5FU 0): 104.65%
OD (Table 6 (1): SAC 10 uM, 5FU 0): 0.341
Growth % (Table 6 (1): SAC 100 uM, 5FU 0): 104.19%
OD (Table 6 (1): SAC 100 uM, 5FU 0): 0.34
Growth % [13]: 95.35%
OD [13]: 0.321
Growth % (Table 6 (2): SAC 10 uM, 5FU 0): 92.41%
OD (Table 6 (2): SAC 10 uM, 5FU 0): 0.335
Growth % (Table 6 (2): SAC 100 uM, 5FU 0): 91.56%
OD (Table 6 (2): SAC 100 uM, 5FU 0): 0.333
Growth % [14]: 74.26%
OD [14]: 0.292
